This is an account of results in PubChem BioAssay (NCI).

Among the test systems are CCRF-CEM leukemia; M14 melanoma; RXF 393 renal; NCI/ADR-RES ovarian; UO-31 renal; HOP-62 NSCLC; HOP-92 NSCLC; SK-MEL-28 melanoma; TK-10 renal; OVCAR-3 ovarian.
What all share (assay): NCI-60 cell line screen, 48 h

Several values for one entry are separate records, joined by “and”; a condition that tells them apart may be missing. Equal entries are not always repeated.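 Five concentrations, 48 hours, 96-well plates. Here, GI50 denotes the concentration required for 50% inhibition of growth. At the TGI there is no net growth.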

On to `[N-]=[N+]=NCCCn1c2c(c3ccc([N+](=O)[O-])cc3c1=O)C(=O)c1cc(Br)ccc1-2`, for which the GI50 is 545 nM in the test on CCRF-CEM leukemia; 3020 nM in the test on M14 melanoma; above 100000 nM in the test with RXF 393 renal; above 100000 nM with NCI/ADR-RES ovarian; above 100000 nM in the test on UO-31 renal; 56100 nM with HOP-62 NSCLC. The GI50 was 37700 nM in the test with HOP-92 NSCLC, above 100 µM in the test on SK-MEL-28 melanoma, above 100000 nM in the test with TK-10 renal and above 100000 nM in the test on OVCAR-3 ovarian. For the same molecule, the TGI in the test with CCRF-CEM leukemia was above 100 µM; in the test with M14 melanoma, above 100 µM; in the test with RXF 393 renal, above 100 µM; with NCI/ADR-RES ovarian, above 100000 nM; in the test with UO-31 renal, above 100 µM; with HOP-62 NSCLC it was above 100000 nM. Besides, the TGI was above 100 µM in the test with HOP-92 NSCLC, above 100000 nM with SK-MEL-28 melanoma, above 100 µM with TK-10 renal and above 100000 nM with OVCAR-3 ovarian.
Consider `Cc1c(C#N)cccc1[C@@H](C)Nc1nnc(C)c2cnc(N3CCOCC3)cc12`, for which the GI50 in the test on CCRF-CEM leukemia was 39200 nM; in the test on M14 melanoma it was 27000 nM; with RXF 393 renal, 11300 nM; with NCI/ADR-RES ovarian it was 35500 nM; with UO-31 renal, 15100 nM; with HOP-62 NSCLC, 43400 nM. Moreover, the GI50 in the test on HOP-92 NSCLC is 175 nM; with SK-MEL-28 melanoma, 28.3 µM; in the test with TK-10 renal, 14200 nM; in the test with OVCAR-3 ovarian it was 14500 nM. Besides, the TGI is above 100 µM with CCRF-CEM leukemia; 90.4 µM in the test on M14 melanoma; above 100 µM with RXF 393 renal; above 100000 nM in the test on NCI/ADR-RES ovarian; above 100 µM in the test with UO-31 renal; above 100000 nM in the test on HOP-62 NSCLC. In addition, the TGI with HOP-92 NSCLC was 13.1 µM; with SK-MEL-28 melanoma, above 100000 nM; with TK-10 renal, above 100 µM; in the test with OVCAR-3 ovarian it was 66100 nM.
Regarding `COc1ccc(-c2cncn2-c2cc(OC)c(OC)c(OC)c2)cc1`, the GI50 is 843 nM with CCRF-CEM leukemia; 179 nM with M14 melanoma; 448 nM with RXF 393 renal; 65.2 nM with NCI/ADR-RES ovarian; 93.6 nM in the test on UO-31 renal; 101 nM in the test on HOP-62 NSCLC. Besides, the GI50 was 3300 nM in the test with HOP-92 NSCLC, 11.3 µM with SK-MEL-28 melanoma, 139 nM in the test on TK-10 renal and 28.2 nM in the test on OVCAR-3 ovarian. The TGI with CCRF-CEM leukemia was 18.5 µM; with M14 melanoma, 12.7 µM; in the test with RXF 393 renal, 21.3 µM; in the test with NCI/ADR-RES ovarian it was 915 nM; with UO-31 renal, 18.2 µM; with HOP-62 NSCLC, above 71600 nM. Moreover, the TGI with HOP-92 NSCLC was above 61 µM; with SK-MEL-28 melanoma it was above 100000 nM; with TK-10 renal, 27.1 µM; in the test on OVCAR-3 ovarian, 64.1 nM.
For the molecule `COc1ccc(-c2cc3c(C)nc(N)nc3n(C3CCC(OCCO)CC3)c2=O)cn1` (centres undefined), the GI50 in the test with CCRF-CEM leukemia is 134 nM and 80.3 nM; with M14 melanoma it was 99 nM and 68.6 nM; in the test on RXF 393 renal it was 40.3 nM and 46.7 nM; in the test with NCI/ADR-RES ovarian, 141 nM and 139 nM; with UO-31 renal it was 26.5 nM and 16.9 nM; with HOP-62 NSCLC, 99.7 nM and 113 nM. The GI50 is 36.2 nM in the test with HOP-92 NSCLC; 0.0517 µM and 0.074 µM in the test with SK-MEL-28 melanoma; 26 nM and 26.4 nM with TK-10 renal; 61.4 nM and 39.5 nM with OVCAR-3 ovarian. For the same molecule, the TGI with CCRF-CEM leukemia is above 23.8 µM; in the test on M14 melanoma, 2.69 µM and 1.05 µM; with RXF 393 renal, 0.289 µM and 0.309 µM; in the test with NCI/ADR-RES ovarian, 2060 nM and 1650 nM; in the test with UO-31 renal it was 0.378 µM and 0.492 µM; in the test with HOP-62 NSCLC it was 2110 nM and 1930 nM. Further, the TGI with SK-MEL-28 melanoma was 425 nM and 604 nM; in the test on TK-10 renal, 0.235 µM and 0.197 µM; in the test on OVCAR-3 ovarian, 486 nM and 427 nM.
